These results are taken from patent publication US20240368192A1, “Nitrogen-Containing Heterocyclic Compound, and Preparation Method Therefor, Intermediate Thereof, and Application Thereof” (Shanghai Allist Pharmaceuticals Co., Ltd., priority 2021, published 2024).

Where a name gives a salt, the structure may show the parent alone. Read-outs that look alike come from different tables or passages of the source.

One experiment deals with Ba/F3 KRAS-G12D cells (Homo sapiens, UniProt P01116, G12D, cells depend on it). Kind of experiment: Proliferation inhibitory activity on Ba/F3 KRAS-G12D stably transfected cell line (CellTiter-Glo, 72 hours). The experiment is classed as cell-based, mouse. The note with it: read-out: Ba/F3 KRAS-G12D IC50. The source says:
(§1) Test Example 1: Proliferation Inhibitory Activity on Ba/F3 KRAS-G12D, Ba/F3 KRAS-G12V Stably Transfected Cell Lines and AGS Tumor Cell Lines Containing KRAS G12D Mutations
(§2) To determine the proliferation inhibitory activity of the compounds in vitro on mouse pro-B cells Ba/F3 (Ba/F3 KRAS-G12D and Ba/F3 KRAS-G12V cells stably expressing KRAS G12D/V mutant proteins) and gastric cancer AGS cells expressing KRAS G12D mutant protein.
(§3) Cell sources. Ba/F3 KRAS-G12D and Ba/F3 KRAS-G12V were purchased from Kyinno Biotech (Beijing) Co., Ltd, Cat. No.: KC-1259 and KC-1261, respectively; AGS was purchased from Shanghai Bioleaf Biotech Co., Ltd.
(§4) Cells in the logarithmic growth phase were seeded in a 96-well plate (8000, 8000, 4000 cells/well, 90 μL/well for Ba/F3 KRAS-G12D, Ba/F3 KRAS-G12V, and AGS cells respectively), incubated at 37° C. for 1 day with 5% CO2, and then a gradient dilution of the test compound was added thereto (compounds 1 to 28 and comparative compounds). The details were as follows, the compound stock solution (10 mM) previously dissolved in DMSO was diluted to 10 gradient concentrations at a fold ratio (4 fold) and diluted to 10 fold of the target concentration in another 96-well plate with culture medium, and then 10 μL/well of the compound solution was added to the 96-well plate seeded with cells to reach the target concentration (10000, 2500, 625, 156, 39, 10, 2.5, 0.6, 0.15, 0.04 nM). Each concentration was provided with 3 duplicate wells and a blank control. After continued incubation at 37° C. and 5% CO2 for 72 hours, 50 μL of CellTiter-Glo*2.0 reagent (luciferase ATP bioluminescence detection reagent, purchased from Promega, Cat. No.: G9243) was added to each well, shaken for 2 minutes, and incubated at room temperature for 8 minutes, and then fluorescence luminescence intensity was detected (light collection time was 100 ms). The inhibitory rate of compounds with various concentrations on cell proliferation was calculated. Cell proliferation inhibition rate (%)=[(luminous intensitycontrol group containing cell culture medium for 72 hour−luminous intensitycompound group for 72 hour)/(luminous intensitycontrol group containing cell culture medium for 72 hours−luminous intensitycontrol group without cell culture medium for 72 hour)]×100%. GraphPad Prism 8.3 software was used to analyze the data, and nonlinear S-curve regression was used to fit the data to obtain a dose-effect curve, from which the IC50 value was calculated.
A general note: In ATP-based viability assays light output follows the ATP content of the culture.

The test system of the next experiment is AGS cells. Put plainly: Proliferation inhibitory activity on AGS tumor cell line containing KRAS G12D mutation (CellTiter-Glo, 72 hours). The experiment is classed as cell-based.
Excerpt: as §1, §2, §3, §4

The next experiment addresses Ba/F3 KRAS-G12V cells (Homo sapiens, UniProt P01116, G12V, cells depend on it). Put plainly: Proliferation inhibitory activity on Ba/F3 KRAS-G12V stably transfected cell line (CellTiter-Glo, 72 hours). The experiment is classed as cell-based, mouse. To be noted: read-out: Ba/F3 KRAS-G12V IC50.
Excerpt: as §1, §2, §3, §4

Ba/F3 KRAS-G12D cells, sequence (P01116 whole entry G12D): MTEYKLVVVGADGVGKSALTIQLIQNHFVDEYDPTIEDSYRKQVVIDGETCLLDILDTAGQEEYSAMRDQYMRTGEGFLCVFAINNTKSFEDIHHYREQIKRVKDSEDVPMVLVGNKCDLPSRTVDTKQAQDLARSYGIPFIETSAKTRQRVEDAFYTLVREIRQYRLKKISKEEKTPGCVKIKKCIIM
Ba/F3 KRAS-G12V cells, sequence (P01116 whole entry G12V): as the sequence (P01116 whole entry G12D) above, with D12V counted along it

One may read the IC50 as the concentration that gives 50% inhibition. `C#Cc1c(F)ccc2cc(O)cc(-c3ncc4c(N5CCC(N)C(F)(F)C5)nc(OC[C@@]56CCCN5C[C@H](F)C6)nc4c3F)c12` (single isomer, unassigned) [Compound 20-P1]: the GI50 at Ba/F3 KRAS-G12D cells is not above 100 nM; at Ba/F3 KRAS-G12V cells, 5 to 10 µM. The molecule further had a half-maximal inhibitory concentration (IC50) in the experiment with AGS cells (Homo sapiens) of 100 to 5000 nM.
In the case of `C#Cc1c(F)ccc2cc(O)cc(-c3ncc4c(N5CCC(N)C(F)(F)C5)nc(OC[C@@]56CCCN5C[C@H](F)C6)nc4c3F)c12` (single isomer, unassigned) [Compound 20-P2], the GI50 fell in the range of 100 to 5000 nM on Ba/F3 KRAS-G12D cells and 5 to 10 µM on Ba/F3 KRAS-G12V cells. This molecule also yielded an IC50 in the experiment with AGS cells of 100 to 5000 nM.
Consider `C#Cc1c(F)ccc2cc(O)cc(-c3ncc4c(N5C[C@H](N)CC(F)(F)C5)nc(OC[C@@]56CCCN5C[C@H](F)C6)nc4c3F)c12` [Compound 6-P1, 4-(4-((R)-5-Amino-3,3-difluoropiperidin-1-yl)-8-fluoro-2-(((2R,7aS)-2-fluorotetrahydro-1H-pyrrolizin-7a(5H)-yl)methoxy)pyrido[4,3-d]pyrimidin-7-yl)-5-ethynyl-6-fluoronaphthalen-2-ol], for which the results for the GI50 at Ba/F3 KRAS-G12D cells and on Ba/F3 KRAS-G12V cells were 100 to 5000 nM and 5 to 10 µM, respectively. This molecule displayed a 50% inhibitory concentration (IC50) in the experiment on AGS cells (Homo sapiens) of 5000 to 10000 nM.
For `C#Cc1c(F)ccc2cc(O)cc(-c3ncc4c(N5C[C@@H](N)CC(F)(F)C5)nc(OC[C@@]56CCCN5C[C@H](F)C6)nc4c3F)c12` [Compound 6-P2, 4-(4-((S)-5-amino-3,3-difluoropiperidin-1-yl)-8-fluoro-2-(((2R,7aS)-2-fluorotetrahydro-1H-pyrrolizin-7a(5H)-yl)methoxy)pyrido[4,3-d]pyrimidin-7-yl)-5-ethynyl-6-fluoronaphthalen-2-ol], in that order: not above 100 nM, 5 to 10 µM and 100 to 5000 nM.
For `C#Cc1c(F)ccc2cc(O)cc(-c3ncc4c(N5C[C@H]6C[C@@]6(N)C5)nc(OC[C@@]56CCCN5C[C@H](F)C6)nc4c3F)c12` [Compound 10, 4-(4-((1S,5R)-1-Amino-3-azabicyclo[3.1.0]hexan-3-yl)-8-fluoro-2-(((2R,7aS)-2-fluorohexahydro-1H-pyrrolizin-7a-yl)methoxy)pyrido[4,3-d]pyrimidin-7-yl)-5-ethynyl-6-fluoronaphthalen-2-ol bis(2,2,2-trifluoroacetate)], in that order: 100 to 5000 nM, 5 to 10 µM and 100 to 5000 nM.
For `Cc1cc(N)nc(-c2nc(Cl)c3c(N4C[C@H]5CC[C@@H](C4)N5)nc(OC[C@@]45CCCN4C[C@H](F)C5)nc3c2F)c1C(F)(F)F` [Compound 17, 6-(4-((1R,5S)-3,8-Diazabicyclo[3.2.1]octan-3-yl)-5-chloro-8-fluoro-2-(((2R,7aS)-2-fluorohexahydro-1H-pyrrolizin-7a-yl)methoxy)pyrido[4,3-d]pyrimidin-7-yl)-4-methyl-5-(trifluoromethyl)pyridin-2-amine bis(2,2,2-trifluoroacetate)], in that order: 100 to 5000 nM, 5 to 10 µM and 5000 to 10000 nM.
For `Cc1cc(N)nc(-c2nc(F)c3c(N4C[C@H]5CC[C@@H](C4)N5)nc(OC[C@@]45CCCN4C[C@H](F)C5)nc3c2F)c1C(F)(F)F` [Compound 18, 6-(4-((1R,5S)-3,8-Diazabicyclo[3.2.1]octan-3-yl)-5,8-difluoro-2-(((2R,7aS)-2-fluorohexahydro-1H-pyrrolizin-7a-yl)methoxy)pyrido[4,3-d]pyrimidin-7-yl)-4-methyl-5-(trifluoromethyl)pyridin-2-amine bis(2,2,2-trifluoroacetate)], the GI50 at Ba/F3 KRAS-G12D cells was 100 to 5000 nM; on Ba/F3 KRAS-G12V cells, 5 to 10 µM. Also, the concentration for half-maximal inhibition (IC50) in the experiment on AGS cells (Homo sapiens) lay in the range of 5000 to 10000 nM.
For `C#Cc1c(F)ccc2cc(O)cc(-c3nc(F)c4c(N5C[C@H]6CC[C@@H](C5)N6)nc(OC[C@@]56CCCN5C[C@H](F)C6)nc4c3F)c12` [Compound 22, 4-(4-((1R,5S)-3,8-Diazabicyclo[3.2.1]octan-3-yl)-5,8-difluoro-2-(((2R,7aS)-2-fluorohexahydro-1H-pyrrolizin-7a-yl)methoxy)pyrido[4,3-d]pyrimidin-7-yl)-5-ethynyl-6-fluoronaphthalen-2-ol], in that order: 2 nM, 5 to 10 µM and 16 nM.
For `C#Cc1c(F)ccc2cc(O)cc(-c3ncc4c(C5=C[C@@H]6CC[C@H](C5)N6)nc(OC[C@@]56CCCN5C[C@H](F)C6)nc4c3F)c12` [Compound 23, 4-(4-((1R,5S)-8-Azabicyclo[3.2.1]oct-3-en-3-yl)-8-fluoro-2-(((2R,7aS)-2-fluorohexahydro-1H-pyrrolizin-7a-yl)methoxy)pyrido[4,3-d]pyrimidin-7-yl)-5-ethynyl-6-fluoronaphthalen-2-ol], the IC50 in the experiment on AGS cells (Homo sapiens) came out at 2500 nM. Further, the GI50 on Ba/F3 KRAS-G12V cells was in the range of 5 to 10 µM.
Regarding `C#Cc1c(F)ccc2cc(O)cc(-c3ncc4c(N5[C@H]6CC[C@@H]5[C@@H](F)[C@H](N)C6)nc(OC[C@@]56CCCN5C[C@H](F)C6)nc4c3F)c12` [Compound 24, 4-4-(4-((1R,2S,3R,5S)-3-Amino-2-fluoro-8-azabicyclo[3.2.1]octan-8-yl)-8-fluoro-2-(((2R,7aS)-2-fluorohexahydro-1H-pyrrolizin-7a-yl)methoxy)pyrido[4,3-d]pyrimidin-7-yl)-5-ethynyl-6-fluoronaphthalen-2-ol], the GI50 was 1900 nM on Ba/F3 KRAS-G12D cells and 5 to 10 µM at Ba/F3 KRAS-G12V cells. Further, the IC50 in the experiment with AGS cells (Homo sapiens) turned out to be 2500 nM.
For `C#Cc1c(F)ccc2cc(O)cc(-c3ncc4c(N5[C@@H]6CC[C@H]5[C@H](F)[C@@H](N)C6)nc(OC[C@@]56CCCN5C[C@H](F)C6)nc4c3F)c12` [Compound 25, 4-(4-((1S,2R,3S,5R)-3-Amino-2-fluoro-8-azabicyclo[3.2.1]octan-8-yl)-8-fluoro-2-(((2R,7aS)-2-fluorohexahydro-1H-pyrrolizin-7a-yl)methoxy)pyrido[4,3-d]pyrimidin-7-yl)-5-ethynyl-6-fluoronaphthalen-2-ol], in that order: 1000 nM, 5 to 10 µM and 2500 nM.
For the molecule `Oc1cc(-c2nc(Cl)c3c(N4C[C@H]5CC[C@@H](C4)N5)nc(OC[C@@]45CCCN4C[C@H](F)C5)nc3c2F)c2c(F)c(F)ccc2c1` [Compound 26, 4-(4-((1R,5S)-3,8-diazabicyclo[3.2.1]octan-3-yl)-5-chloro-8-fluoro-2-(((2R,7aS)-2-fluorohexahydro-1H-pyrrolizin-7a-yl)methoxy)pyrido[4,3-d]pyrimidin-7-yl)-5,6-difluoronaphthalen-2-ol], the results for the GI50 at Ba/F3 KRAS-G12D cells and on Ba/F3 KRAS-G12V cells were 1.7 nM and 5 to 10 µM, respectively. This molecule also returned a concentration for half-maximal inhibition (IC50) in the experiment on AGS cells (Homo sapiens) of 28 nM.
Regarding `[2H]C([2H])(Oc1nc(N2C[C@H]3CC[C@@H](C2)N3)c2c(Cl)nc(-c3cc(O)cc4ccc(F)c(C#C)c34)c(F)c2n1)[C@@]12CCCN1C[C@H](F)C2` [Compound 27, 4-(4-((1R,5S)-3,8-Diazabicyclo[3.2.1]octan-3-yl)-5-chloro-8-fluoro-2-(((2R,7aS)-2-fluorotetrahydro-1H-pyrrolizin-7a(5H)-yl)methoxy-d2)pyrido[4,3-d]pyrimidin-7-yl)-5-ethynyl-6-fluoronaphthalen-2-ol], the GI50 on Ba/F3 KRAS-G12D cells was found to be 1 nM. Further, in the experiment on AGS cells (Homo sapiens), the half-maximal inhibitory concentration (IC50) came to 6 nM.
For `[2H]C#Cc1c(F)ccc2cc(O)cc(-c3nc(Cl)c4c(N5C[C@H]6CC[C@@H](C5)N6)nc(OC[C@@]56CCCN5C[C@H](F)C6)nc4c3F)c12` [Compound 28, 4-(4-((1R,5S)-3,8-Diazabicyclo[3.2.1]octan-3-yl)-5-chloro-8-fluoro-2-(((2R,7aS)-2-fluorotetrahydro-1H-pyrrolizin-7a(5H)-yl)methoxy)pyrido[4,3-d]pyrimidin-7-yl)-5-(ethynyl-d)-6-fluoronaphthalen-2-ol hydrochloride], in that order: 1 nM and 6 nM.
